In patent publication US20250066338A1, “CERTAIN 3-AZABICYCLO[3.1.0]HEXANES AS GLP-1 RECEPTOR MODULATORS” (AstraZeneca AB, priority 2021, published 2025) one finds EC50 and IC50 data, which are given here for 2 compounds.

The target in assay [1] is GLP-1R in EndoC-βH1 cells (Homo sapiens (Human), UniProt P43220). Nature of the assay: EndoC cAMP Accumulation Assay. The class given is cell-based. As to conditions: EndoC-βH1 human pancreatic beta cell line; HTRF cAMP accumulation. An excerpt: EndoC cAMP Accumulation Assay
A HTRF cAMP assay (cAMP Gs dynamic kit; CisoBio Cat #62AM4PEJ) was used to identify agonists of GLP-1R in a pancreatic insulinoma cell line (EndoC-βH1). […] EndoC-βH1 cells have detectable GLP-1R messenger ribonucleic acid (mRNA) as detected by quantitative polymerase chain reaction (qPCR). […] The EndoC-βH1 cell line is a valid model of human beta cells and applicable for screenings to identify novel drug target candidates (Mol. Metab., 2018, 8, 144-157). CisBio HTRF cAMP kits are based on a competitive immunoassay using cryptate-labelled anti-cAMP antibody and d2-labeled cAMP. The detection kit is intended for the direct quantitative determination of cAMP. The specific signal (i.e. energy transfer) is inversely proportional to the concentration of cAMP in the standard or sample. Test compounds (10 mM in DMSO) were diluted into assay buffer (HBSS (Sigma #H8264) supplemented with 25 mM HEPES (Gibco #15630, pH 7.4), 0.1% BSA (Sigma #A3059) and 0.5 mM IBMX (Sigma #17018) included fresh on the day of the assay) into 96 well U-bottom plates (Greiner #650201). Diluted compounds were transferred to ECHO source polypropylene plates (Labcyte #P-05525) and dose response curves were dispensed acoustically using ECHO 550 into black shallow-well u-bottom 384-well HTRF Assay Plates (Corning 4514).
Cryovials of EndoC-H1 (supplied at 1×10e^7 cells/vial) were used directly for screening. The cryovials and were removed from N2 (1) and thawed rapidly in a 37° C. water bath. The cells were resuspended in assay buffer and centrifuged at 300 g for 5 min. Cells were resuspended in assay buffer at the appropriate concentration, typically at 12e5 cells per mL (3000 cells per well, dependent on cell batch) and 2.5 μL diluted cells were added to all wells of destination plate by Multidrop combi reagent dispenser (Thermofisher). The plates were incubated at rt for 30 min. The assay was stopped by adding 2.5 μL anti-cAMP cryptate solution to all wells and 2.5 μL cAMP-d2 solution (both diluted 1:20 in lysis buffer) to columns 1-22 by Combi drop. A volume of 2.5 μL cAMP-d2 solution was added to wells E23 to P24 and 2.5 μL lysis buffer added to wells A23 to D24 by multichannel pipette. The plates were incubated at rt for 1 h and read on an Envision plate reader using excitation wavelength of 320 nm and emission of […] and 660 nm.
Raw data from Envision is converted to % DeltaF according to the manufacturer's instructions. Dose response curves are analysed via 4-Parameter Logistical Analysis and assay plate Z′ values obtained. Samples are graphed as percentage (%) activation plots compared to GIP (1-42, Bachem H-5645) with assay window defined by negative control as basal cell cAMP levels and positive control are defined by maximum GIP (82.5 nM) signal. GLP1 (7-36 amide, Bachem H-6795) dose response curve was included on all plates.

Assay [2] has as its target human phosphodiesterase-3A (Homo sapiens (Human), UniProt Q14432). Nature of the assay: PDE3 Assay. The class given is biochemical. As to conditions: human recombinant enzyme expressed in Sf9 cells; formation of 5'AMP from cAMP. The procedure:
Evaluation of the effects of compounds on the activity of the human phosphodiesterase-3A is quantified by measuring the formation of 5′AMP from cAMP using a human recombinant enzyme expressed in a clonal isolate of Spodoptera frugiperda cells (Sf9) cells.
The test compound, reference compound or water (control) are added to a buffer containing 40 mM tris(hydroxymethyl)aminomethane (Tris)/HCl (pH 7.4) and 8 mM MgCl2, 450 nMcAMP and 0.25 μCi [^3H]cAMP.
Thereafter, the reaction is initiated by addition of the enzyme (about 1 U) and the mixture is incubated for 20 min at 22° C.
For basal control measurements, the enzyme is omitted from the reaction mixture. Following incubation SPA beads are added. After 30 min at 22° C. under shaking, the amount of [^3H]^+ 5′AMP is quantified with a scintillation counter (Topcount, Packard).
The results are expressed as a percent inhibition of the control enzyme activity. The standard inhibitory reference compound is milrinone (CAS number 78415-72-2), which is tested in each experiment at several concentrations to obtain an inhibition curve from which its IC50 value is calculated.

The target in the next assay is human GLP-1R receptor (Homo sapiens (Human), UniProt P43220, L260F). The assay can be described thus: CHOK1 GLP-1R cAMP Assay. The class given is cell-based. Particulars: CHO-K1 cell line stably expressing human GLP-1R; HTRF cAMP; agonist activity. The protocol: A cell line stably expressing the human GLP-1R receptor (NM 002062.5, including the naturally-occurring variant Leu260Phe) in a CHO-K1 (ATCC® CCL-61™) was used for assay.
GLP-1 receptor mediated agonist activity was determined in a cell based assay measuring cyclic adenosine monophosphate (cAMP) levels in cells using Homogeneous Time-Resolved Fluorescence (HTRF) cAMP detection kit (CisBio catalog #62AM4PEC, cAMP Gs Dynamic range kit). The cAMP detection method is based on a competitive immunoassay, in which cAMP produced by the cells and cAMP labeled with the dye d2 compete for binding to a Europium-Cryptate-labeled anti-cAMP antibody. The specific HTRF signal is inversely proportional to the concentration of cAMP.
Compounds were added to individual well in 384 well-assay plates (Greiner #784076) using an Echo (LabCyte) dispenser from 10 mM stocks. Varying concentration of compounds were added to wells, and DMSO was used to normalize each well to a volume of 100 nL. A dose response curve of GLP1(7-36)NH2 (Bachem H-6795) was included in each run. 5 μL of cAMP concentration response standards are applied in specified wells in the assay plates. Cryo-preserved cells are thawed and resuspended in assay buffer pre-heated to 37° C. (20 mM HEPES pH 7.4, lx Hank's Balanced Salt Solution (HBSS, Life Technologies #14065) supplemented with 0.1% (w/v) bovine serum albumin (Sigma, A-7030). Cells were centrifuged at 250*g for 5 min at rt, and resuspended in room tempered assay buffer to a final density of 0.16*10^6 cell/mL, to deliver 800 cells/well. 5 μL of assay buffer with 1 mM 3-isobutyl-1-methylxanthin (IBMX; Sigma cat I-7018) was dispensed per well in assay plates using a multidrop combi (Thermo Scientific) subsequently 5 μL of cell suspension was distributed to relevant wells in the assay using a multidrop dispenser. Assay plates were incubated 20 min at rt.
Detection reagents, Europium-Cryptate-labeled anti-cAMP antibody and cAMP labeled with the dye d2, are diluted in lysis buffer, provided by the manufacturer. 5 μL of each detection reagent is supplemented to each assay well using a multidrop dispenser. Assay plates are incubated in the dark for at least one h. The HTRF signal is measured using the HTRF module (excitation: 337 nm, emission A: 665 nm and emission B: 620 nm) in Pherastar FSX (BMG Labtech).
Raw data were converted to pM cAMP using the cAMP standard curve included in each run. Converted data were further analyzed in Genedata Screener (Genedata) and EC50 determinations were made from agonist dose-response curves analyzed with a curve fitting program using a 4-parameter logistic dose response equation (Equation y=A+((B−A)/1+((C/x)^D))) where A is no stimulation, B is full stimulation, C is the EC50 and D is the Hill slope). The percent effect was determined relative to a saturating concentration of a full GLP-1R agonist (GLP1(7-36)NH2 has 100% effect in this assay setup).

pEC50, pIC50: −log10 of the molar value. A value given as a limit tells only on which side of the number the result lay.

human GLP-1R receptor, sequence (P43220 24-463 L260F): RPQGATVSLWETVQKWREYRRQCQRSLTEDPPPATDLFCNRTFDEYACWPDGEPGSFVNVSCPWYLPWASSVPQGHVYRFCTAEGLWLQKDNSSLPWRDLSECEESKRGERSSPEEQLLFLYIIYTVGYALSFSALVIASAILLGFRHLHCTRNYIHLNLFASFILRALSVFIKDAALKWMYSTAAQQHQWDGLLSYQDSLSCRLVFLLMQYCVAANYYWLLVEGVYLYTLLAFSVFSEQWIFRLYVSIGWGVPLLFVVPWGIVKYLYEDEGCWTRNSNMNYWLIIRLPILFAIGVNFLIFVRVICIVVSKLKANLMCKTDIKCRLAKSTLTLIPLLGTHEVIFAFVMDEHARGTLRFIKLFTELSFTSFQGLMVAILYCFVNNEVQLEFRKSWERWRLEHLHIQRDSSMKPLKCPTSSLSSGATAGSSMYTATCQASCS
human phosphodiesterase-3A, sequence (Q14432 whole entry): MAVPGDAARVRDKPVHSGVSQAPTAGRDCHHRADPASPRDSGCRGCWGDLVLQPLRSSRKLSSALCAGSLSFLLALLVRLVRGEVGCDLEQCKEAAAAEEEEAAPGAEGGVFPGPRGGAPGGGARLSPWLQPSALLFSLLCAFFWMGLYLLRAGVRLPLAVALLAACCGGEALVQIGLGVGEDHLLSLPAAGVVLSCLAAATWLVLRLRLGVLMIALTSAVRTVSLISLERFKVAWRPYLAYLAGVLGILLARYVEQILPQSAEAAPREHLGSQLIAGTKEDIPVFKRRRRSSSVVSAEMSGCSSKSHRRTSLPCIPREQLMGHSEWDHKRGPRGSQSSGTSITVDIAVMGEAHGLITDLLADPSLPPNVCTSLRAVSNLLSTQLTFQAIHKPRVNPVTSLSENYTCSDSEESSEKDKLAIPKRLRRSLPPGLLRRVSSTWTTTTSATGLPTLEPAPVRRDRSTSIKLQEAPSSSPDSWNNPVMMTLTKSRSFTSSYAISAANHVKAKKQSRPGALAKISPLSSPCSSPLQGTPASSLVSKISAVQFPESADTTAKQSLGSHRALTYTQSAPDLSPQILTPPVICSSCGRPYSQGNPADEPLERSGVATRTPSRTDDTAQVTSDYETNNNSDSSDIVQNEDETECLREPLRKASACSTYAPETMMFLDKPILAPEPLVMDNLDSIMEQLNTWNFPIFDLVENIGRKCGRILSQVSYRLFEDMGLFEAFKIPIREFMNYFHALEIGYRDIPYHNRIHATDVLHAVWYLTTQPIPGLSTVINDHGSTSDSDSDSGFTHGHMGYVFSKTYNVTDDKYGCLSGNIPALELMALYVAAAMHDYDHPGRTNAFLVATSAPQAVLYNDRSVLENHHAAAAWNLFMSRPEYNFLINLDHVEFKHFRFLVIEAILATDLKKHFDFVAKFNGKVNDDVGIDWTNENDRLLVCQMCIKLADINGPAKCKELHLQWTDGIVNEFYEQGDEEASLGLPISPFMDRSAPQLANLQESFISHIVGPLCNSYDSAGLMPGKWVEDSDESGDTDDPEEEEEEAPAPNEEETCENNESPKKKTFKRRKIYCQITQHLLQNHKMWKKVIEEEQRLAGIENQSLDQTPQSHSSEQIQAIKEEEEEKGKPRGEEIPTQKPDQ
GLP-1R in EndoC-βH1 cells, sequence (P43220 24-463): as the sequence (P43220 24-463 L260F) above, with F237L counted along it

Usually pEC50 stands for the negative decadic logarithm of the EC50, by convention in mol/L. Low readings indicate a large EC50, high ones a small EC50. Broadly, the pIC50 is −log10 of the IC50, conventionally taken in molar units. With `CCn1cncc1Cn1c(CN2C[C@@H]3[C@H](C2)[C@H]3c2nc(OCc3ccc(Cl)cc3F)ccc2F)nc2c(OC)cc(C(=O)O)cc21` [Example 17, 2-(((1R,5S,6r)-6-(6-((4-Chloro-2-fluorobenzyl)oxy)-3-fluoropyridin-2-yl)-3-azabicyclo[3.1.0]hexan-3-yl)methyl)-1-((1-ethyl-1H-imidazol-5-yl)methyl)-4-methoxy-1H-benzo[d]imidazole-6-carboxylic acid], the figures for the pEC50 (in assay [1]; on human GLP-1R receptor) were 8.03 and 7.82, respectively. In addition, in assay [2], the negative-log IC50 (pIC50) is below 4.00.

`COc1cc(C(=O)O)cc2c1nc(CN1C[C@@H]3[C@H](C1)[C@H]3c1nc(OCc3ccc(Cl)cc3F)ccc1C)n2C[C@@H]1CCO1` [Example 19, 2-(((1R,5S,6S)-6-(6-((4-Chloro-2-fluorobenzyl)oxy)-3-methylpyridin-2-yl)-3-azabicyclo[3.1.0]hexan-3-yl)methyl)-4-methoxy-1-(((S)-oxetan-2-yl)methyl)-1H-benzo[d]imidazole-6-carboxylic acid]: the negative logarithm of the EC50 (pEC50) in assay [1] was 8.02; at human GLP-1R receptor, 7.72. Further, the negative logarithm of the IC50 (pIC50) in assay [2] was below 4.00.
